The source of these data is patent US10745397B2, “1-Substituted 1,2,3,4-tetrahydro-1,7-naphthyridin-8-amine derivatives and their use as EP4 receptor antagonists” (TAKEDA PHARMACEUTICAL COMPANY LIMITED, priority 2015, dated 2020).

For one assay, the target named is T1, human EP4 receptor (Homo sapiens, UniProt P35408).
T1 construct: expressed in transfected cells; host or cells: FreeStyle293 (HEK293F) cells, transient transfection with pcDNA3.1(+), total membrane fraction
As to the kind of experiment: hEP4 radioligand binding assay ([3H] PGE2 competitive binding, membrane fractions). The conditions noted are these: 1 nM [3H] PGE2; for inhibition at 0.3 µM: 300 nM compound; for inhibition at 1 µM: 1 μM compound. The source says:
The full-length coding sequences for human EP1 (NM_000955), human EP2 (NM_000956), human EP3 (NM_198717) and human EP4 (NM_000958) were cloned into pcDNA3.1(+) vector (Life Technologies, CA, USA). In order to prepare overexpressed EP 1-4 membrane in Freestyle293 cells (Life Technologies, CA, USA), the pcDNA3.1(+) vector encoding a cDNA of the relevant gene was transiently transfected into FreeStyle293 cells using 293Fectin (Life Technologies, CA, USA) according to the manufacturer instruction manual. After 2 days, cultured cells were centrifuged (1,000×g, 10 min, 4° C.) and pellets homogenized by a probe sonicator (Sonics vibracell, Sonics and Materials Inc., USA; 31% Amp, 5 sec pulse, Imin interval, 4 cycles) in ice-cold 50 mM Tris-HCl buffer (pH 7.5 at 25° C.) containing 0.5 mM EDTA, 250 mM Sucrose and 10 mM MgCl2. Cell homogenates were centrifuged (890×g, 10 min, 4° C.), and the supernatant was recovered. Total membrane fractions were isolated by ultracentrifugation (140,000×g, 60 min, 4° C.). Pellets were re-suspended in the same buffer, and stored at −80° C. until use. The protein concentration in homogenate was determined with the BCA Protein Assay Kit (Pierce Biotechnology, Inc., IL, USA) according to the manufacturer protocol.
The binding affinity of the compounds was evaluated using a competitive radioligand binding assay which measured the specific binding of [3H] PGE2 to the human EP4 receptor. Briefly, varying concentrations of NCEs were incubated with cell membrane fractions generated HEK293F cells transiently transfected with human EP4 receptor as described above. Each reaction consisted of 10 μg membrane protein and NCE in 50 mM Tris-HCl, pH-6.0 by NaOH, 10 mM MgCl2 and 0.5 mM EDTA assay buffer. Radioligand, [3H] PGE2 (American Radiochemicals Inc. Specific Activity 180 Ci/mmol), at a final of 1 nM was added to each reaction where the final assay volume was 200 μL and concentration of DMSO was adjusted to 1%. Appropriate controls included total binding in the assay (vehicle control) and control for non-specific binding. Non-specific binding was evaluated by incubating the hEP4 protein with 10 μM unlabeled PGE2 under the same assay conditions as NCEs. The reaction was incubated at room temperature for 2 hours and terminated by harvesting the reaction contents to a PEI coated GF/C filter plate (PerkinElmer). The plate was washed four times with cold 50 mM Tris-HCl, pH-7.5 wash buffer and dried at 50° C. for 2 hours or at 37° C. overnight. [3H] PGE2 bound to the protein was quantified by the addition of 25 μL of Microscint PS (PerkinElmer) and plate was read on MicroBeta2 liquid Scintillation and luminescence counter (PerkinElmer). Data was analyzed using GraphPad Prism 5 (GraphPad Software Inc., San Diego, Calif.) where non-specific binding was normalized to 0% specific binding of [3]PGE2 and vehicle control (DMSO) was normalized to 100% specific binding of [3]PGE2. Binding affinity of NCEs, Ki, was generated using One site—Fit Ki equation in GraphPad Prism 5.

For assay [1], the target named is T2, hEP4 (C6 glioma cells overexpressing hEP4) (Homo sapiens, UniProt P35408).
T2 construct: host or cells: C6 glioma cells overexpressing hEP4
The assay can be described thus: hEP4 cell based assay (cAMP), inhibition of PGE2 induced cAMP, HTRF. The conditions noted are these: 1 μM compound, PGE2 at EC80. On the procedure: The functional assay for hEP4 activation and inhibition was carried out via the quantitative determination of agonist, PGE2, induced cAMP response using HTRF in a competitive immunoassay (Cisbio dynamic 2 kit). NCEs at varying concentrations were evaluated for inhibition of PGE2 induced increase in cAMP. Briefly, C6 glioma cells overexpressing hEP4 (Takeda) were cultured in DMEM (low glucose, pyruvate), 10% FBS (Gibco) and PenStep. The cells were harvested on the day of the assay, washed with HBSS+10 mM HEPES (pH 7.4)+0.1% BSA buffer and pre-incubated with varying concentrations of NCE. Each reaction contained 7000 cells and NCEs in HBSS+10 mM HEPES+0.1% BSA assay buffer along with PDE inhibitors IBMX and Ro 20-1724 (final concentration of each inhibitor […]). Following 15 min pre-incubation, the cells were treated with EC80 concentration of agonist PGE2 for 30 min to induce cAMP. Final volume of the assay was 6 μL and DMSO concentration was maintained at 1%. The reaction was terminated with the addition of cAMP labeled with the dye d2 in lysis buffer according to manufacturers' protocol. This was followed by the addition of the anti-cAMP antibody labeled with Cryptate according to the manufacturers' protocol. The reaction was incubated at room temperature in dark for 45 min and the plate was evaluated for fluorescence at 665 nm (FRET) and 620 nm (cryptate emission) on a Flexstation III microplate reader (Molecular Devices, Sunnyvale, Calif.) Ex max: 313 nm; Em1: 620 nm; Em2: 665 nm. Data was analyzed using GraphPad Prism 5 (GraphPad Software Inc., San Diego, Calif.) where cells treated with agonist (EC80) was normalized to 0% inhibition of hEP4 and cells treated with buffer (no agonist) was normalized to 100% inhibition of hEP4. IC50 of NCEs was generated using non-linear regression—Log(inhibitor) vs. response equation in GraphPad Prism 5.
For orientation: Time-resolved FRET reads energy transfer from a long-lived donor to a nearby acceptor.

SMILES strings stand for the structures.

T1 sequence (P35408 whole entry): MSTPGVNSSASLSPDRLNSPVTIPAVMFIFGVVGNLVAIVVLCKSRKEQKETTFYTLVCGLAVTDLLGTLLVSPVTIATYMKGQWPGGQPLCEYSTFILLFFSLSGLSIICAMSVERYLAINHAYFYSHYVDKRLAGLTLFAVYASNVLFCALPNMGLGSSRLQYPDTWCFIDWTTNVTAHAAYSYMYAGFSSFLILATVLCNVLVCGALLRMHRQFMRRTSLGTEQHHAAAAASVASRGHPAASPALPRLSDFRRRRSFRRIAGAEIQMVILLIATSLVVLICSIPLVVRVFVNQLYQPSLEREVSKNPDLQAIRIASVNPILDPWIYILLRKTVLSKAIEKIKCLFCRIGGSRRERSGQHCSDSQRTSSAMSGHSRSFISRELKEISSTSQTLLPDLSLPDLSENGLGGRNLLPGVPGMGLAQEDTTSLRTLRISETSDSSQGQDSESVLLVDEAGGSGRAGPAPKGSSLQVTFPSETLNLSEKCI
T2 sequence (P35408 whole entry): as above

In turn, `COC(=O)c1ccc([C@H](C)Nc2ncnc3c2N(Cc2cccc(Cl)c2)C(=O)CO3)cc1` [Example A46, methyl 4-[(1S)-1-[[5-[(3-chlorophenyl)methyl]-6-oxo-pyrimido[4,5-b][1,4]oxazin-4-yl]amino]ethyl]benzoate] returned an inhibition at 0.3 µM on human EP4 receptor of 12%.

At human EP4 receptor, `COC(=O)c1ccc(C2(Nc3nccc4c3N(Cc3ccc(F)c(F)c3)C(=O)CO4)CC2)cc1` [Example A47, methyl 4-[1-[[4-[(3,4-difluorophenyl)methyl]-3-oxopyrido[4,3-b][1,4]oxazin-5-yl]amino]cyclopropyl]benzoate] returned an inhibition at 0.3 µM of 12%.

In turn, `COC(=O)c1ccc([C@H](C)Nc2nccc3c2N(C(=O)c2ccc(C(F)(F)F)cc2)CCO3)cc1` [Example A48, methyl 4-[(1S)-1-[[4-[4-(trifluoromethyl)benzoyl]-2,3-dihydropyrido[4,3-b][1,4]oxazin-5-yl]amino]ethyl]benzoate] yielded an inhibition at 0.3 µM at human EP4 receptor of 28%.

`COc1ccc(CNc2nccc3c2N(Cc2ccc(F)c(F)c2)CCO3)cc1` [Example A49, 4-[(3,4-difluorophenyl)methyl]-N-[(4-methoxyphenyl)methyl]-2,3-dihydropyrido[4,3-b][1,4]oxazin-5-amine] gave an inhibition at 0.3 µM on human EP4 receptor of 17%.

`Cc1cccnc1CNc1nccc2c1N(Cc1ccc(F)c(F)c1)CCO2` [Example A50, 4-[(3,4-difluorophenyl)methyl]-N-[(3-methyl-2-pyridyl)methyl]-2,3-dihydropyrido[4,3-b][1,4]oxazin-5-amine] returned an inhibition at 0.3 µM at human EP4 receptor of 26%.

On to `Fc1ccc(CN2CCOc3ccnc(NCC4CCCCC4)c32)cc1F` [Example A51, N-(cyclohexylmethyl)-4-[(3,4-difluorophenyl)methyl]-2,3-dihydropyrido[4,3-b][1,4]oxazin-5-amine], for which 1 µM produced 29% inhibition on human EP4 receptor.

As to `C[C@H](Nc1nccc2c1N(Cc1ccccc1)CCO2)c1ccc(C(=O)O)cc1` [Example B1, 4-[(1S)-1-[(4-Benzyl-2,3-dihydropyrido[4,3-b][1,4]oxazin-5-yl)amino]ethyl]benzoic acid], the inhibition at 1 µM in assay [1] worked out at 100%. Moreover, at 0.3 µM the inhibition at human EP4 receptor was 93%.

Turning to `C[C@H](Nc1nccc2c1N(CCOc1ccc(F)cc1)CCO2)c1ccc(C(=O)O)cc1` [Example B3, 4-[(1S)-1-[[4-[2-(4-Fluorophenoxy)ethyl]-2,3-dihydropyrido[4,3-b][1,4]oxazin-5-yl]amino]ethyl]benzoic acid], at 1 µM the inhibition in assay [1] was 90%. The inhibition at 0.3 µM on human EP4 receptor was determined as 81%.

In assay [1], `C[C@H](Nc1nccc2c1N(Cc1ccc(C(F)(F)F)cc1)CCO2)c1ccc(C(=O)O)cc1` [Example B5, 4-[(1S)-1-[[4-[[4-(trifluoromethyl)phenyl]methyl]-2,3-dihydropyrido[4,3-b][1,4]oxazin-5-yl]amino]ethyl]benzoic acid] returned an inhibition at 1 µM of 100%. The compound also displayed an inhibition at 0.3 µM at human EP4 receptor of 74%.

In assay [1], `C[C@H](Nc1nccc2c1N(Cc1ccc(F)c(F)c1)CCO2)c1ccc(C(=O)O)cc1` [Example B6, 4-[(1S)-1-[[4-[(3,4-difluorophenyl)methyl]-2,3-dihydropyrido[4,3-b][1,4]oxazin-5-yl]amino]ethyl]benzoic acid] returned an inhibition at 1 µM of 100%. The inhibition at 0.3 µM on human EP4 receptor was determined as 89%.

Turning to `C[C@H](Nc1nccc2c1N(Cc1ccccn1)CCO2)c1ccc(C(=O)O)cc1` [Example B27, 4-[(1S)-1-[[4-(2-pyridylmethyl)-2,3-dihydropyrido[4,3-b][1,4]oxazin-5-yl]amino]ethyl]benzoic acid], 0.3 µM produced 42% inhibition at human EP4 receptor.

Turning to `C[C@H](Nc1nccc2c1N(Cc1cccnc1)CCO2)c1ccc(C(=O)O)cc1` [Example B28, 4-[(1S)-1-[[4-(3-pyridylmethyl)-2,3-dihydropyrido[4,3-b][1,4]oxazin-5-yl]amino]ethyl]benzoic acid], the inhibition at 0.3 µM at human EP4 receptor was determined as 49%.

On human EP4 receptor, `C[C@H](Nc1nccc2c1N(Cc1cccc(Cl)c1)CCN2C)c1ccc(C(=O)O)cc1` [Example B34, 4-[(1S)-1-[[4-[(3-chlorophenyl)methyl]-1-methyl-2,3-dihydropyrido[3,4-b]pyrazin-5-yl]amino]ethyl]benzoic acid] registered an inhibition at 0.3 µM of 42.5%.

`C[C@H](Nc1nccc2c1N(Cc1ccc(C(F)(F)F)cc1)CCN2C)c1ccc(C(=O)O)cc1` [Example B35, 4-[(1S)-1-[[1-methyl-4-[[4-(trifluoromethyl)phenyl]methyl]-2,3-dihydropyrido[3,4-b]pyrazin-5-yl]amino]ethyl]benzoic acid] showed an inhibition at 0.3 µM at human EP4 receptor of 42.4%.

In turn, `C[C@H](Nc1nccc2c1N(Cc1ccc(C(F)(F)F)cc1)C(=O)CS2)c1ccc(C(=O)O)cc1` [Example B36, 4-[(1S)-1-[[3-oxo-4-[[4-(trifluoromethyl)phenyl]methyl]pyrido[4,3-b][1,4]thiazin-5-yl]amino]ethyl]benzoic acid] had an inhibition at 0.3 µM at human EP4 receptor of 49%.

On to `C[C@H](Nc1ncnc2c1N(Cc1cccc(Cl)c1)CCO2)c1ccc(C(=O)O)cc1` [Example B38, 4-[(1S)-1-[[5-[(3-chlorophenyl)methyl]-6,7-dihydropyrimido[4,5-b][1,4]oxazin-4-yl]amino]ethyl]benzoic acid], for which 0.3 µM produced 88% inhibition on human EP4 receptor.

Regarding `Cc1noc(C)c1CN1CCOc2ccnc(N[C@@H](C)c3ccc(C(=O)O)cc3)c21` [Example B41, 4-[(1S)-1-[[4-[(3,5-dimethylisoxazol-4-yl)methyl]-2,3-dihydropyrido[4,3-b][1,4]oxazin-5-yl]amino]ethyl]benzoic acid], testing at 0.3 µM at human EP4 receptor gave an inhibition of 47%.

On human EP4 receptor, `C[C@H](Nc1nccc2c1N(Cc1ccc(F)c(F)c1)C(=O)CS2)c1ccc(C(=O)O)cc1` [Example B42, 4-[(1S)-1-[[4-[(3,4-difluorophenyl)methyl]-3-oxopyrido[4,3-b][1,4]thiazin-5-yl]amino]ethyl]benzoic acid] returned an inhibition at 0.3 µM of 0.3% and an inhibition at 1 µM of 26%.

With `C[C@H](Nc1nccc2c1N(Cc1cccc(Cl)c1)C(=O)CS2)c1ccc(C(=O)O)cc1` [Example B43, 4-[(1S)-1-[[4-[(3-chlorophenyl)methyl]-3-oxopyrido[4,3-b][1,4]thiazin-5-yl]amino]ethyl]benzoic acid], the inhibition at 0.3 µM at human EP4 receptor was found to be 10%.

`C[C@H](Nc1ncc(C2CC2)c2c1N(Cc1cccc(C(F)(F)F)c1)CCO2)c1ccc(C(=O)O)cc1` [Example B47, 4-[(1S)-1-[[8-cyclopropyl-4-[[3-(trifluoromethyl)phenyl]methyl]-2,3-dihydropyrido[4,3-b][1,4]oxazin-5-yl]amino]ethyl]benzoic acid] came in with an inhibition at 0.3 µM on human EP4 receptor of 60%.

The inhibition is how much of the control response was suppressed. A lower inhibition goes with a weak effect.
